Data from patent publication US20090004211A1, “METHOD FOR EFFECTING LOCALIZED, NON-SYSTEMIC AND SYSTEMIC, IMMUNOGENIC TREATMENT OF CANCER USING ERP57 TRANSLOCATION” (priority 2006, published 2009).
“Also recorded” adds a separate entry of the source. Non-standard residues stand in square brackets, D forms with d. Residues, ends and D or L forms follow the SMILES beside them. *: point of attachment. Nle = CCCC[C@H](N)C(=O)O; Cbz = O=C(OCc1ccccc1)*; CH2F = FC*

Tests used:
ERP57 [1] = experiment: Fluorescence detection of cell surface ERP57 (cytofluorometry); format: cell-based, mouse; details: for time after treatment at which ERP57 exposure is detectable: intact cells; for ERP57 exposure at cell surface: CT26 cells, agent alone; for ERP57 exposure of cells treated with etoposide plus inhibitor: in combination with etoposide
Procedure: CT26 cells (on a glass slide or in 12-well plates) were first washed with FACS buffer (1×PBS, 5% fetus bovine serum, and 0.1% sodium azide) and then incubated with rabbit anti-mouse CRT antibody (1:100, Stressgen), or rabbit anti-mouse ERP57 antibody (abcam) in FACS buffer at 4° C. for 30 min. Cells reacted with anti-rabbit IgG (H+L) Alexa fluor 488-conjugates (1:500) in FACS buffer at 4° C. for 30 min. After washing three times with FACS buffer, surface CRT and ERP57 was detected by cytofluorometric analysis on a FACS Vantage. In some experiments, cells were fixed with 4% paraformaldehyde, counterstained with Hoechst (2 μM; Sigma), followed by fluorescence microscopic assessment.

CRT = experiment: Fluorescence detection of cell surface CRT (cytofluorometry); details: for time after treatment at which CRT exposure is detectable: intact cells; for CRT exposure at cell surface: CT26 cells, agent alone; for CRT exposure of cells treated with etoposide plus inhibitor: in combination with etoposide
Procedure: CT26 cells (on a glass slide or in 12-well plates) were first washed with FACS buffer (1×PBS, 5% fetus bovine serum, and 0.1% sodium azide) and then incubated with rabbit anti-mouse CRT antibody (1:100, Stressgen), or rabbit anti-mouse ERP57 antibody (abcam) in FACS buffer at 4° C. for 30 min. […] After washing three times with FACS buffer, surface CRT and ERP57 was detected by cytofluorometric analysis on a FACS Vantage. In some experiments, cells were fixed with 4% paraformaldehyde, counterstained with Hoechst (2 μM; Sigma), followed by fluorescence microscopic assessment.
Trypsinized CT26 cells were enucleated as described. Briefly, cells were treated in 2 ml of complete RPMI medium containing cytochalasin B (10 μg/ml; Sigma) and DNase I (80 U/ml; Sigma). […] Gradients containing cell suspensions were centrifugated in a prewarmed SW41 Beckman rotor at 25 000 rpm for 20 minutes at 30° C. […] Then the cell surface CRT was detected (see materials and methods) and the viability was determined by with propidium iodine staining (2 μg/ml, Sigma) for 5 min followed by cytofluorometric analysis.

CT26 tumor cells = experiment: Anti-tumor vaccination: treated dying CT26 cells injected s.c., challenge with live tumor cells in opposite flank; format: in vivo, BALB/c mice
CT26 tumors = experiment: Treatment of established CT26 tumors by single intratumoral injection; format: in vivo, BALB/c mice
Procedure: All animals were maintained in specific pathogen-free conditions and all experiments followed the FELASA guidelines. 3×10^6 treated CT26 cells were inoculated s.c. in […] of PBS into BALB/c six-week-old female mice, into the lower flank, while 5×10^5 untreated control cells were inoculated into the contralateral flank. For the tumorigenicity assay, 3×10^6 treated or untreated CT26 cells were injected s.c. into nu/nu mice. To assess the specificity of the immune response against CT26, injections of either 5×10^5 or 5×10^6 of CT26 were made (for the mice immunized in a standard protocol or vaccination protocol, respectively). Tumors were evaluated weekly, using a caliper. In a series of experiments, BALB/c (wild type or nu/nu) carrying palpable CT26 tumors (implanted 14 days before for wild type or 7 days before for nu/nu mice by injection of […] tumor cells) received a single intratumoral injection of […] PBS containing the same concentration of anti-cancer agents and PP1/GADD34 inhibitors as those used in vitro, as well as rCRT ([…]). For the assessment of local immune response, 3×10^5 cells were injected in 50 μl into the footpad of mice. Five days later, mice were sacrificed and the draining lymph nodes were harvested. 1×10^5 lymph node cells were cultured for 4 days alone or with 1×10^4 CT26 cells killed by a freeze-thaw cycle in 200 μl in round-bottom 96-well plates. IFN-γ was determined by ELISA.

ERP57 [2] = experiment: Fluorescence detection of cell surface ERP57 (cytofluorometry); format: cell-based, mouse; details: murine MCA205, B16F10, J558; human HeLa, A549, HCT116
[3] = pre-incubation for 1 h with the inhibitor
[4] = CT26 cells treated in vitro with agent alone, immunocompetent BALB/c mice
[5] = agent alone, immunocompetent BALB/c mice, 14-day-old CT26 tumors
[6] = agent alone, immunodeficient nu/nu mice
[7] = immunodeficient (athymic) animals

## C/C1=C/C(=O)O[C@@H]2C[C@@H](CC[C@H](C)/C=C\C=C\CC1)O[C@@](O)([C@@H]1CSC(=O)N1)C2 [latrunculin A]
ERP57 [1]; [3]
  effect on ERP57 exposure induced by anthracyclines and PP1/GADD34 inhibitors: abolished
CRT; [3]
  effect on CRT exposure induced by anthracyclines and PP1/GADD34 inhibitors: abolished

## C[C@H]1CCC/C=C/[C@@H]2C[C@H](O)C[C@H]2[C@H](O)/C=C/C(=O)O1 [brefeldin]
CT26 tumor cells; [4]
  immunogenicity of cell death (protection against tumor growth on rechallenge): failed to induce immunogenic apoptosis

## CC[C@@]1(O)C(=O)OCc2c1cc1n(c2=O)Cc2cc3ccccc3nc2-1 [camptothecin]
CT26 tumor cells; [4]
  immunogenicity of cell death (protection against tumor growth on rechallenge): failed to induce immunogenic apoptosis

## CC(=O)O[C@@]12CO[C@@H]1C[C@H](O)[C@@]1(C)C(=O)[C@H](O)C3=C(C)[C@@H](OC(=O)[C@H](O)[C@@H](NC(=O)OC(C)(C)C)c4ccccc4)C[C@@](O)([C@@H](OC(=O)c4ccccc4)[C@H]21)C3(C)C [taxotere, Docetaxel]
ERP57 [1]
  time after treatment at which ERP57 exposure is detectable: 1 h
CRT
  time after treatment at which CRT exposure is detectable: 1 h

## arsenite
CT26 tumor cells; mouse, in vivo
  immunogenicity of cell death (protection against tumor growth on rechallenge): failed to induce immunogenic apoptosis

## CC(C)C[C@@H](C=O)NC(=O)[C@H](CC(C)C)NC(=O)[C@H](CC(C)C)NC(=O)OCc1ccccc1 [MG132] (Cbz-Leu-Leu-Leu-aldehyde)
CT26 tumor cells; [4]
  immunogenicity of cell death (protection against tumor growth on rechallenge): failed to induce immunogenic apoptosis

## COc1cc([C@@H]2c3cc4c(cc3[C@@H](O[C@@H]3O[C@@H]5CO[C@@H](C)O[C@H]5[C@H](O)[C@H]3O)[C@H]3COC(=O)[C@H]23)OCO4)cc(OC)c1O [etoposide]
CT26 tumor cells; [4]
  immunogenicity of cell death (protection against tumor growth on rechallenge): failed to induce immunogenic apoptosis; also recorded: poorly immunogenic
CT26 tumors; [5]
  therapeutic effect of single intratumoral injection: no major therapeutic effect
CT26 tumors; [6]
  therapeutic effect of single intratumoral injection: no major therapeutic effect

## CCCCCCCCCCCCC/C=C/[C@@H](O)[C@H](CO)NC(=O)CCCCCCCCCCCCCCC [C16-ceramide]
ERP57 [1]
  time after treatment at which ERP57 exposure is detectable: 1 h
CRT
  time after treatment at which CRT exposure is detectable: 1 h

## CO[C@@]12[C@H](COC(N)=O)C3=C(C(=O)C(C)=C(N)C3=O)N1C[C@@H]1N[C@@H]12 [mitomycin C]
CT26 tumor cells; [4]
  immunogenicity of cell death (protection against tumor growth on rechallenge): failed to induce immunogenic apoptosis
CT26 tumors; mouse, in vivo
  therapeutic effect of single intratumoral injection: no major therapeutic effect

## CCOc1ccc(-c2nc3ccc(-c4nc5ccc(N6CCN(C)CC6)cc5[nH]4)cc3[nH]2)cc1 [Hoechst 33342]
CT26 tumor cells; [4]
  immunogenicity of cell death (protection against tumor growth on rechallenge): failed to induce immunogenic apoptosis

## tunicamycin
CT26 tumor cells; [4]
  immunogenicity of cell death (protection against tumor growth on rechallenge): failed to induce immunogenic apoptosis

## CO[C@H]([C@H](O)CC(=O)[C@@H](C)[C@@H](O)CC[C@@H](C)[C@@H]1O[C@]2(CC[C@@H](C)[C@H](CC[C@H](C)C(C)=O)O2)CC[C@@H]1C)[C@H](OC(=O)C[C@@H](O)C1=C(C)C(=O)OC1=O)C(C)C [tautomycin]
CT26 tumor cells; [4]
  immunogenicity of cell death (protection against tumor growth on rechallenge): not sufficient to induce immunogenic cell death
CT26 tumor cells; mouse, in vivo
  immunogenic potential of cells succumbing to etoposide or mitomycin C: greatly enhanced
ERP57 [1]
  ERP57 exposure at cell surface: efficiently induced
  ERP57 exposure of cells treated with etoposide plus inhibitor: greatly enhanced
CT26 tumors; [5]
  therapeutic effect of single intratumoral injection: no major therapeutic effect
CT26 tumors; [6]
  therapeutic effect of single intratumoral injection: no major therapeutic effect
CT26 tumors; immunocompetent animals
  therapeutic effect of intratumoral injection combined with etoposide or mitomycin C: stable disease or complete tumor regression
CT26 tumors; [7]
  therapeutic effect of intratumoral injection combined with etoposide or mitomycin C: not in athymic
CRT
  CRT exposure at cell surface: efficiently induced
  CRT exposure of cells treated with etoposide plus inhibitor: greatly enhanced

## CCCC[C@@H](C=O)NC(=O)[C@H](CC(C)C)NC(=O)[C@H](CC(C)C)NC(C)=O [ALLN] (Ac-Leu-Leu-[Nle]-aldehyde)
CT26 tumor cells; [4]
  immunogenicity of cell death (protection against tumor growth on rechallenge): failed to induce immunogenic apoptosis

## CC(=O)O[C@H]1C(=O)[C@@]2(C)[C@H]([C@H](OC(=O)c3ccccc3)[C@]3(O)C[C@H](OC(=O)[C@H](O)[C@@H](NC(=O)c4ccccc4)c4ccccc4)C(C)=C1C3(C)C)[C@]1(OC(C)=O)CO[C@@H]1C[C@@H]2O [paclitaxel]
ERP57 [1]
  time after treatment at which ERP57 exposure is detectable: 1 h
CRT
  time after treatment at which CRT exposure is detectable: 1 h

## CCCCCCCCCCCCC/C=C/[C@@H](O)[C@H](CO)NC(C)=O [C2 ceramide]
CT26 tumor cells; [4]
  immunogenicity of cell death (protection against tumor growth on rechallenge): failed to induce immunogenic apoptosis

## COC(=O)C[C@H](NC(=O)[C@H](C)NC(=O)[C@@H](NC(=O)OCc1ccccc1)C(C)C)C(=O)CF [Z-VAD-fmk] (Cbz-Val-Ala-Asp(OMe)-CH2F)
CT26 tumor cells; combined with doxorubicin
  effect on immunogenicity of doxorubicin-elicited cell death: reduces the immunogenicity of doxorubicin-elicited cell death

## CC(=O)[C@]1(O)Cc2c(O)c3c(c(O)c2[C@@H](O[C@H]2C[C@H](N)[C@H](O)[C@H](C)O2)C1)C(=O)c1ccccc1C3=O [idarubicin]
CT26 tumor cells; [4]
  immunogenicity of cell death (protection against tumor growth on rechallenge): elicited immunogenic cell death
CRT
  time after treatment at which CRT exposure is detectable: 1 h

## CC(=O)N[C@@H](CSC(=O)[C@]1([C@@H](O)C(C)C)NC(=O)[C@H](C)[C@@H]1O)C(=O)O [loctacystin]
CT26 tumor cells; [4]
  immunogenicity of cell death (protection against tumor growth on rechallenge): failed to induce immunogenic apoptosis

## O=C(/C=C/c1ccccc1)NC(NC(=S)Nc1cccc2cccnc12)C(Cl)(Cl)Cl (centres unmarked) [salubrinal]
CT26 tumor cells; [4]
  immunogenicity of cell death (protection against tumor growth on rechallenge): not sufficient to induce immunogenic cell death
CT26 tumor cells; inhibitor combined with etoposide or mitomycin C
  immunogenic potential of cells succumbing to etoposide or mitomycin C: greatly enhanced
ERP57 [1]
  ERP57 exposure at cell surface: efficiently induced
  ERP57 exposure of cells treated with etoposide plus inhibitor: greatly enhanced
CT26 tumors; [5]
  therapeutic effect of single intratumoral injection: no major therapeutic effect
CT26 tumors; [6]
  therapeutic effect of single intratumoral injection: no major therapeutic effect
CT26 tumors; immunocompetent animals
  therapeutic effect of intratumoral injection combined with etoposide or mitomycin C: stable disease or complete tumor regression
CT26 tumors; [7]
  therapeutic effect of intratumoral injection combined with etoposide or mitomycin C: not in athymic
ERP57 [2]
  ERP57 exposure on panel of tumor cell lines: induced
CRT
  CRT exposure at cell surface: efficiently induced
  CRT exposure of cells treated with etoposide plus inhibitor: greatly enhanced
CRT; murine MCA205, B16F10, J558, human HeLa, A549, HCT116
  CRT exposure on panel of tumor cell lines: induced

## O=C1[O][Pt]2([NH][C@@H]3CCCC[C@H]3[NH]2)[O]C1=O [oxaliplatin]
ERP57 [1]
  time after treatment at which ERP57 exposure is detectable: 1 h
CRT
  time after treatment at which CRT exposure is detectable: 1 h

## C/C=C(/C)C(=O)O[C@H]1C(C)=C2[C@H]([C@@H]1OC(=O)CCCCCCC)[C@@](C)(OC(C)=O)C[C@H](OC(=O)CCC)[C@@]1(O)[C@H]2OC(=O)[C@@]1(C)O [thapsigargin]
CT26 tumor cells; [4]
  immunogenicity of cell death (protection against tumor growth on rechallenge): failed to induce immunogenic apoptosis
